According to the NIST ThermoML archive (doi:10.1016/j.jct.2008.02.001):

Test: molar heat capacity at constant pressure
Details: 101.33 kPa, Crystal, PPMS-Quantum Design

[O-][Si]([O-])([O-])[O-].[Th+4] [thorium silicate]
Details	molar heat capacity at constant pressure [J/K/mol]
1.885 K	0.001439
1.946 K	0.001553
2.013 K	0.001656
2.084 K	0.0018
2.158 K	0.001932
2.234 K	0.002074
2.319 K	0.002253
2.399 K	0.002416
2.484 K	0.002584
2.572 K	0.002792
2.66 K	0.003006
2.749 K	0.003244
2.842 K	0.0035
2.936 K	0.003794
3.038 K	0.004121
3.136 K	0.004482
3.243 K	0.004896
3.353 K	0.005336
3.463 K	0.005793
3.573 K	0.006259
3.69 K	0.00688
3.812 K	0.00739
3.935 K	0.007954
4.063 K	0.008647
4.198 K	0.009528
4.338 K	0.01046
4.483 K	0.01148
4.637 K	0.0127
4.798 K	0.01391
4.968 K	0.01533
5 K	0.01646
5.151 K	0.01714
5.343 K	0.01921
5.54 K	0.02152
5.744 K	0.02438
5.956 K	0.02725
6.175 K	0.03065
6.401 K	0.03406
6.631 K	0.03824
6.869 K	0.04281
7.113 K	0.04768
7.362 K	0.05303
7.62 K	0.05923
7.885 K	0.06632
8.158 K	0.07389
8.441 K	0.08256
8.734 K	0.09321
9.036 K	0.1048
9.352 K	0.1182
9.685 K	0.1338
10 K	0.1498
10.02 K	0.1509
10.37 K	0.1707
10.73 K	0.1934
11.1 K	0.2188
11.48 K	0.2483
11.88 K	0.2819
12.29 K	0.32
12.72 K	0.3633
13.16 K	0.4129
13.61 K	0.4682
14.09 K	0.5314
14.58 K	0.603
15.08 K	0.6838
15.61 K	0.7739
16.14 K	0.8747
16.71 K	0.9903
17.29 K	1.117
17.89 K	1.255
18.52 K	1.411
19.15 K	1.576
19.81 K	1.761
20 K	1.81
20.51 K	1.965
21.22 K	2.185
21.97 K	2.428
22.7 K	2.683
23.5 K	2.973
24.27 K	3.257
25.16 K	3.599
25.98 K	3.941
26.91 K	4.308
27.88 K	4.727
28.82 K	5.152
29.81 K	5.6
30 K	5.69
30.85 K	6.085
31.93 K	6.6
33.08 K	7.146
34.36 K	7.779
35.54 K	8.309
36.76 K	8.996
38.05 K	9.736
39.38 K	10.24
40 K	10.68
40.71 K	10.97
42.03 K	11.71
43.53 K	12.5
45.03 K	13.28
46.58 K	14.12
48.19 K	15
49.84 K	15.88
50 K	16.04
51.54 K	16.84
53.32 K	17.83
55.17 K	18.86
57.08 K	19.9
59.06 K	20.99
61.1 K	22.12
63.21 K	23.21
65.39 K	24.39
67.65 K	25.63
69.99 K	26.91
72.42 K	28.19
74.93 K	29.51
77.52 K	30.84
80.21 K	32.24
82.99 K	33.67
85.77 K	35.08
88.74 K	36.63
91.81 K	38.21
94.98 K	39.83
98.28 K	41.48
100 K	42.28
101.68 K	43.16
105.2 K	44.86
108.84 K	46.57
112.61 K	48.32
116.51 K	50.09
120.55 K	51.87
124.73 K	53.61
129.04 K	55.37
133.51 K	57.22
138.13 K	59.1
142.91 K	60.93
147.86 K	62.82
150 K	63.64
152.97 K	64.6
158.25 K	66.54
163.72 K	68.4
169.39 K	70.23
175.25 K	72.2
181.32 K	74.15
187.59 K	75.84
194.08 K	77.96
200 K	79.46
200.79 K	79.76
207.73 K	81.56
214.93 K	83.34
222.36 K	85.17
230.05 K	86.81
238.01 K	88.63
246.25 K	90.44
250 K	91.07
254.74 K	92.01
263.54 K	93.59
272.64 K	95.02
282.08 K	96.5
291.84 K	98.01
298.15 K	98.68
300 K	98.88
302.26 K	99.17
